Laboratory results taken from patent publication US20030008012A1, “Composition for rectal delivery of an oxazolidinone antibacterial drug” (priority 2001, published 2003).

Assay: Linezolid concentration in blood plasma of beagle dogs after rectal administration of one suppository
Type: in vivo
Conditions: dog, other: rectal
Procedure: One 20 mg linezolid suppository prepared as above was rectally administered to each of four beagle dogs, and the concentration of linezolid in blood plasma of the dogs was determined at different times after administration, as presented in Table 2.
One 600 mg linezolid suppository prepared as above was rectally administered to each of four beagle dogs and the concentration of linezolid in blood plasma of the dogs was determined at different times after administration, as presented in Table 3.

[1] = 20 mg, Example 2 solution suppository, 20 mg linezolid, Dog 1 (15.2 kg)
[2] = 20 mg, Example 2 solution suppository, 20 mg linezolid, Dog 2 (13.7 kg)
[3] = 20 mg, Example 2 solution suppository, 20 mg linezolid, Dog 3 (10.5 kg)
[4] = 20 mg, Example 2 solution suppository, 20 mg linezolid, Dog 4 (12.2 kg)
[5] = 600 mg, Example 5 particulate dispersion suppository, 600 mg linezolid, Dog 1 (15.0 kg)
[6] = 600 mg, Example 5 particulate dispersion suppository, 600 mg linezolid, Dog 2 (13.4 g)
[7] = 600 mg, Example 5 particulate dispersion suppository, 600 mg linezolid, Dog 3 (10.1 kg)
[8] = 600 mg, Example 5 particulate dispersion suppository, 600 mg linezolid, Dog 4 (12.5 kg)

## CC(=O)NC[C@H]1CN(c2ccc(N3CCOCC3)c(F)c2)C(=O)O1 [Linezolid, (S)-N-[[3-[3-fluoro-4-(4-morpholinyl)phenyl]-2-oxo-5-oxazolidinyl]methyl]acetamide]
[1]
  concentration at 0.25 h: 47.6 ng/mL
  concentration at 0.5 h: 132 ng/mL
  concentration at 0.75 h: 168 ng/mL
  concentration at 1 h: 209 ng/mL
  concentration at 1.5 h: 267 ng/mL
  concentration at 2 h: 354 ng/mL
  concentration at 2.5 h: 417 ng/mL
  concentration at 3 h: 364 ng/mL
[2]
  concentration at 0.25 h: 54.6 ng/mL
  concentration at 0.5 h: 136 ng/mL
  concentration at 0.75 h: 189 ng/mL
  concentration at 1 h: 197 ng/mL
  concentration at 1.5 h: 179 ng/mL
  concentration at 2 h: 238 ng/mL
  concentration at 2.5 h: 171 ng/mL
  concentration at 3 h: 146 ng/mL
[3]
  concentration at 0.25 h: 134 ng/mL
  concentration at 0.5 h: 305 ng/mL
  concentration at 0.75 h: 340 ng/mL
  concentration at 1 h: 388 ng/mL
  concentration at 1.5 h: 423 ng/mL
  concentration at 2 h: 351 ng/mL
  concentration at 2.5 h: 331 ng/mL
  concentration at 3 h: 317 ng/mL
[4]
  concentration at 0.25 h: 80.7 ng/mL
  concentration at 0.5 h: 204 ng/mL
  concentration at 0.75 h: 291 ng/mL
  concentration at 1 h: 394 ng/mL
  concentration at 1.5 h: 532 ng/mL
  concentration at 2 h: 548 ng/mL
  concentration at 2.5 h: 550 ng/mL
  concentration at 3 h: 556 ng/mL
[5]
  concentration at 0.25 h: 1110 ng/mL
  concentration at 0.5 h: 2250 ng/mL
  concentration at 0.75 h: 3840 ng/mL
  concentration at 1 h: 5010 ng/mL
  concentration at 1.5 h: 6260 ng/mL
  concentration at 2 h: 7230 ng/mL
  concentration at 2.5 h: 7980 ng/mL
  concentration at 3 h: 8480 ng/mL
[6]
  concentration at 0.25 h: 770 ng/mL
  concentration at 0.5 h: 1240 ng/mL
  concentration at 0.75 h: 1940 ng/mL
  concentration at 1 h: 2610 ng/mL
  concentration at 1.5 h: 3490 ng/mL
  concentration at 2 h: 3570 ng/mL
  concentration at 2.5 h: 5010 ng/mL
  concentration at 3 h: 4730 ng/mL
[7]
  concentration at 0.25 h: 444 ng/mL
  concentration at 0.5 h: 1110 ng/mL
  concentration at 0.75 h: 1680 ng/mL
  concentration at 1 h: 2540 ng/mL
  concentration at 1.5 h: 3460 ng/mL
  concentration at 2 h: 4840 ng/mL
  concentration at 2.5 h: 5510 ng/mL
  concentration at 3 h: 6570 ng/mL
[8]
  concentration at 0.25 h: 1100 ng/mL
  concentration at 0.5 h: 1720 ng/mL
  concentration at 0.75 h: 1930 ng/mL
  concentration at 1 h: 2640 ng/mL
  concentration at 1.5 h: 4260 ng/mL
  concentration at 2 h: 4810 ng/mL
  concentration at 2.5 h: 6060 ng/mL
  concentration at 3 h: 7480 ng/mL
